Patent US20240165243A1, “EGFR DEGRADERS AND METHODS OF USE” (BeiGene Switzerland GmbH, priority 2021, published 2024)

Test system: EGFR (Del19/T790M/C797S)
Experiment: Cell degradation HTRF assay, H1975-clone #28 cells
Assay type: cell-based
Settings: H1975-clone #28 (Del19/T790M/C797S) cells, 16 h treatment; for DC50: HTRF, read-out: H1975-clone#28 DTC DC50; for H1975-clone#28 DTC Dmax (%): maximum percentage of degradation
Method: Cell Degradation of Example 124-189
H1975-#28 and H1975-#25 cells are treated with compounds diluted in 0.2% DMSO cell culture medium on day 2, incubate for 16 h, 37° C., 5% CO2. the final concentration of compounds in all assay is start with 10 uM, 5-fold dilution, total 8 doses were included.
After 16 h treatment, add HTRF lysis buffer to each well; seal the plate and incubate 1 hour at room temperature on a plate shaker; Once the cells are lysed, 16 μL of cell lysate are transferred to a PE 384-well HTRF detection plate; 4 μL of pre-mixed HTRF antibodies are added to each well; Cover the plate with a plate sealer, spin 1000 rpm for 1 min, Incubate overnight at room temperature; Read on BMG PheraStar with HTRF protocol (337 nm-665 nm-620 nm).
The inhibition (degradation) percentage of the compound was calculated by the following equation:
Inhibition percentage of Compound=100−100×(Signal−low control)/(High control−low control), wherein signal=each test compound group.
High control=Cell group with added DMSO and without compound, indicating microplate readings without EGFR degradation;
Dmax is the maximum percentage of inhibition (degradation).
The IC50 (DC50) value of a compound can be obtained by fitting the following equation
Y=Bottom+(TOP−Bottom)/(1+((IC50/X)^hillslope))
Wherein, X and Y are known values, and IC50, Hillslope, Top and Bottom are the parameters obtained by fitting with software. Y is the inhibition percentage (calculated from the equation), X is the concentration of the compound; IC50 is the concentration of the compound when the 50% inhibition is reached. The smaller the IC50 value is, the stronger the inhibitory ability of the compound is. Vice versa, the higher the IC50 value is, the weaker the ability the inhibitory ability of the compound is; Hillslope represents the slope of the fitted curve, generally around 1*; Bottom represents the minimum value of the curve obtained by data fitting, which is generally 0%±20%; Top represents the maximum value of the curve obtained by data fitting, which is generally 100%±20%. The experimental data were fitted by calculating and analyzing with Dotmatics data analysis software. When Dmax<50%, DC50 will be automatically assigned as larger than […].

SMILES | DC50 [nM] | H1975-clone#28 DTC Dmax (%)
COc1cc(N2CCC(N3CCN(C(=O)C4CN(c5cccc6c5n(C)c(=O)n6C5CCC(=O)NC5=O)C4)CC3)CC2)c(C)cc1Nc1ncc(Br)c(Nc2cnc3ccccc3c2P(C)(C)=O)n1 (stereo not shown) [Example 179, 3-(4-(3-(4-(1-(4-((5-bromo-4-((4-(dimethylphosphoryl)quinolin-3-yl)amino)pyrimidin-2-yl)amino)-5-methoxy-2-methylphenyl)piperidin-4-yl)piperazine-1-carbonyl)azetidin-1-yl)-3-methyl-2-oxo-2,3-dihydro-1H-benzo[d]imidazol-1-yl)piperidine-2,6-dione] | 2.6 | 54
CCc1cc(Nc2ncc(Br)c(Nc3cnc4ccccc4c3P(C)(C)=O)n2)c(OC)cc1N1CCC(N2CCN(C(=O)[C@H]3CCN(c4ccc5c(c4)C(C)(C)C(=O)N5C4CCC(=O)NC4=O)C3)CC2)CC1 (stereo partly drawn) [Example 168, 3-(5-((S)-3-(4-(1-(4-((5-bromo-4-((4-(dimethylphosphoryl)quinolin-3-yl)amino)pyrimidin-2-yl)amino)-2-ethyl-5-methoxyphenyl)piperidin-4-yl)piperazine-1-carbonyl)pyrrolidin-1-yl)-3,3-dimethyl-2-oxoindolin-1-yl)piperidine-2,6-dione] | 2 | 47
CCOc1cc(N2CCC(N3CCN(CCc4ccc5c(c4)oc(=O)n5C4CCC(=O)NC4=O)CC3)CC2)c(CC)cc1Nc1ncc(Br)c(Nc2cnc3cc(F)ccc3c2P(C)(C)=O)n1 (stereo not shown) [Example 149, 3-(6-(2-(4-(1-(4-((5-bromo-4-((4-(dimethylphosphoryl)-7-fluoroquinolin-3-yl)amino)pyrimidin-2-yl)amino)-5-ethoxy-2-ethylphenyl)piperidin-4-yl)piperazin-1-yl)ethyl)-2-oxobenzo[d]oxazol-3(2H)-yl)piperidine-2,6-dione] | 1.3 | 73
CCc1cc(Nc2ncc(Br)c(Nc3cnc4ccccc4c3P(C)(C)=O)n2)c(OCC(F)(F)F)cc1N1CCC(N2CCN(CCC3CCN(c4cc(F)c(C5CCC(=O)NC5=O)c(F)c4)CC3)CC2)CC1 (stereo not shown) [Example 186, 3-(4-(4-(2-(4-(1-(4-((5-bromo-4-((4-(dimethylphosphoryl)quinolin-3-yl)amino)pyrimidin-2-yl)amino)-2-ethyl-5-(2,2,2-trifluoroethoxy)phenyl)piperidin-4-yl)piperazin-1-yl)ethyl)piperidin-1-yl)-2,6-difluorophenyl)piperidine-2,6-dione] | 8 | 72
CCOc1cc(N2CCC(N3CCN(CCc4ccc5c(c4)oc(=O)n5C4CCC(=O)NC4=O)CC3)CC2)c(CC)cc1Nc1ncc(Br)c(Nc2cnc3ccccc3c2P(C)(C)=O)n1 (stereo not shown) [Example 139, 3-(6-(2-(4-(1-(4-((5-bromo-4-((4-(dimethylphosphoryl)quinolin-3-yl)amino)pyrimidin-2-yl)amino)-5-ethoxy-2-ethylphenyl)piperidin-4-yl)piperazin-1-yl)ethyl)-2-oxobenzo[d]oxazol-3(2H)-yl)piperidine-2,6-dione] | 1.5 | 75
CCc1cc(Nc2ncc(Br)c(Nc3cnc4ccc(C(F)(F)F)cc4c3P(C)(C)=O)n2)c(OC)cc1N1CCC(N2CCN(CCc3cc(F)c(C4CCC(=O)NC4=O)c(F)c3)CC2)CC1 (stereo not shown) [Example 171, 3-(4-(2-(4-(1-(4-((5-bromo-4-((4-(dimethylphosphoryl)-6-(trifluoromethyl)quinolin-3-yl)amino)pyrimidin-2-yl)amino)-2-ethyl-5-methoxyphenyl)piperidin-4-yl)piperazin-1-yl)ethyl)-2,6-difluorophenyl)piperidine-2,6-dione] | 4.3 | 79
CCOc1cc(N2CCC(N3CCN(CCc4cc(F)c(C5CCC(=O)NC5=O)c(F)c4)CC3)CC2)c(C)cc1Nc1ncc(Br)c(Nc2cnc3ccccc3c2P(C)(C)=O)n1 (stereo not shown) [Example 183, 3-(4-(2-(4-(1-(4-((5-bromo-4-((4-(dimethylphosphoryl)quinolin-3-yl)amino)pyrimidin-2-yl)amino)-5-ethoxy-2-methylphenyl)piperidin-4-yl)piperazin-1-yl)ethyl)-2,6-difluorophenyl)piperidine-2,6-dione] | 4.6 | 73
CCOc1cc(N2CCC(N3CCN(CCc4cccc5c4n(C)c(=O)n5C4CCC(=O)NC4=O)CC3)CC2)c(CC)cc1Nc1ncc(Br)c(Nc2cnc3ccccc3c2P(C)(C)=O)n1 (stereo not shown) [Example 140, 3-(4-(2-(4-(1-(4-((5-bromo-4-((4-(dimethylphosphoryl)quinolin-3-yl)amino)pyrimidin-2-yl)amino)-5-ethoxy-2-ethylphenyl)piperidin-4-yl)piperazin-1-yl)ethyl)-3-methyl-2-oxo-2,3-dihydro-1H-benzo[d]imidazol-1-yl)piperidine-2,6-dione] | 4.4 | 84
CCc1cc(Nc2ncc(Br)c(Nc3cnc4ccccc4c3P(C)(C)=O)n2)c(OC)cc1N1CCC(N2CCN(CCc3cccc4c3n(C3CC3)c(=O)n4C3CCC(=O)NC3=O)CC2)CC1 (stereo not shown) [Example 155, 3-(4-(2-(4-(1-(4-((5-bromo-4-((4-(dimethylphosphoryl)quinolin-3-yl)amino)pyrimidin-2-yl)amino)-2-ethyl-5-methoxyphenyl)piperidin-4-yl)piperazin-1-yl)ethyl)-3-cyclopropyl-2-oxo-2,3-dihydro-1H-benzo[d]imidazol-1-yl)piperidine-2,6-dione] | 0.7 | 85
CCc1cc(Nc2ncc(Br)c(Nc3cnc4c(F)cccc4c3P(C)(C)=O)n2)c(OC)cc1N1CCC(N2CCN(CCC3CCN(c4cc(F)c(C5CCC(=O)NC5=O)c(F)c4)CC3)CC2)CC1 (stereo not shown) [Example 165, 3-(4-(4-(2-(4-(1-(4-((5-bromo-4-((4-(dimethylphosphoryl)-8-fluoroquinolin-3-yl)amino)pyrimidin-2-yl)amino)-2-ethyl-5-methoxyphenyl)piperidin-4-yl)piperazin-1-yl)ethyl)piperidin-1-yl)-2,6-difluorophenyl)piperidine-2,6-dione] | 4.2 | 84
CCc1cc(Nc2ncc(Br)c(Nc3cnc4ccccc4c3P(C)(C)=O)n2)c(OC)cc1N1CCC(N2CCN(C(=O)CN(C)c3cc(F)c(C4CCC(=O)NC4=O)c(F)c3)CC2)CC1 (stereo not shown) [Example 189, 3-(4-((2-(4-(1-(4-((5-bromo-4-((4-(dimethylphosphoryl)quinolin-3-yl)amino)pyrimidin-2-yl)amino)-2-ethyl-5-methoxyphenyl)piperidin-4-yl)piperazin-1-yl)-2-oxoethyl)(methyl)amino)-2,6-difluorophenyl)piperidine-2,6-dione] | 2.4 | 77
CCc1cc(Nc2ncc(Br)c(Nc3cnc4ccccc4c3P(C)(C)=O)n2)c(OCC(F)(F)F)cc1N1CCC(N2CCN(CCc3cc(F)c(C4CCC(=O)NC4=O)c(F)c3)CC2)CC1 (stereo not shown) [Example 187, 3-(4-(2-(4-(1-(4-((5-bromo-4-((4-(dimethylphosphoryl)quinolin-3-yl)amino)pyrimidin-2-yl)amino)-2-ethyl-5-(2,2,2-trifluoroethoxy)phenyl)piperidin-4-yl)piperazin-1-yl)ethyl)-2,6-difluorophenyl)piperidine-2,6-dione] | 3.3 | 69
CCc1cc(Nc2ncc(Br)c(Nc3cnc4ccccc4c3P(C)(C)=O)n2)c(OC)cc1N1CCC(N2CCN(CCc3ccc(F)c4c3oc(=O)n4[C@H]3CCC(=O)NC3=O)CC2)CC1 [Example 126, (S)-3-(7-(2-(4-(1-(4-((5-bromo-4-((4-(dimethylphosphoryl)quinolin-3-yl)amino)pyrimidin-2-yl)amino)-2-ethyl-5-methoxyphenyl)piperidin-4-yl)piperazin-1-yl)ethyl)-4-fluoro-2-oxobenzo[d]oxazol-3(2H)-yl)piperidine-2,6-dione] | 1.3 | 84
CCc1cc(Nc2ncc(Br)c(Nc3cnc4cc(F)ccc4c3P(C)(C)=O)n2)c(OC)cc1N1CCC(N2CCN(CCc3ccc4c(c3)oc(=O)n4C3CCC(=O)NC3=O)CC2)CC1 (stereo not shown) [Example 134, 3-(6-(2-(4-(1-(4-((5-bromo-4-((4-(dimethylphosphoryl)-7-fluoroquinolin-3-yl)amino)pyrimidin-2-yl)amino)-2-ethyl-5-methoxyphenyl)piperidin-4-yl)piperazin-1-yl)ethyl)-2-oxobenzo[d]oxazol-3(2H)-yl)piperidine-2,6-dione] | 0.8 | 79
